Assay results from BindingDB's records for doi:10.1016/s0960-894x(01)00239-6 (Dupont Pharmaceuticals, 2001).
pIC50: −log10 of the molar value.

These molecules were tested against T1, Gag-Pol polyprotein [588-1027]/[588-1147] (Human immunodeficiency virus 1, UniProt P04585) (assay: HIV-1 RT Assay). Settings: pH 8.2; 37 °C.
T1 construct: 588-1027; 588-1147
Excerpt: The IC50 of reverse transcriptase is the concentration that inhibits 50% of recombinant HIV-1 RT RNA-directed DNA polymerase activity in vitro.

Compound	pIC50
CC[C@@H]1O[C@](/C=C/C2CC2)(C(F)(F)F)c2cc(F)ccc2NC1=O [(3S,5S)-5-[(E)-2-cyclopropylethenyl]-3-ethyl-7-fluoro-5-(trifluoromethyl)-1,2,3,5-tetrahydro-4,1-benzoxazepin-2-one]	6.82
C[C@@H]1O[C@](/C=C/C2CC2)(C(F)(F)F)c2c(ccc(F)c2F)NC1=O [(3S,5S)-5-[(E)-2-cyclopropylethenyl]-6,7-difluoro-3-methyl-5-(trifluoromethyl)-1,2,3,5-tetrahydro-4,1-benzoxazepin-2-one]	6.76
C[C@@H]1O[C@](/C=C/C2CC2)(C(F)(F)F)c2cc(F)ccc2NC1=O [(3S,5S)-5-[(E)-2-cyclopropylethenyl]-7-fluoro-3-methyl-5-(trifluoromethyl)-1,2,3,5-tetrahydro-4,1-benzoxazepin-2-one]	6.89
CC[C@@H]1O[C@](/C=C/C2CC2)(C(F)(F)F)c2cc(Cl)ccc2NC1=O [(3S,5S)-7-chloro-5-[(E)-2-cyclopropylethenyl]-3-ethyl-5-(trifluoromethyl)-1,2,3,5-tetrahydro-4,1-benzoxazepin-2-one]	6.73
C[C@@H]1O[C@](/C=C/C2CC2)(C(F)(F)F)c2cc(Cl)ccc2NC1=O [(3S,5S)-7-chloro-5-[(E)-2-cyclopropylethenyl]-3-methyl-5-(trifluoromethyl)-1,2,3,5-tetrahydro-4,1-benzoxazepin-2-one]	7.34
